Data as given in patent publication US20250346943A1, “DEGRADER COMPOUNDS OF QSOX1 mRNA” (UNIVERSITY OF FLORIDA RESEARCH FOUNDATION, INCORPORATED, priority 2022, published 2025).

Test system: proteins of MDA-MB-231 cells (human proteome)
Experiment: Proteomics analysis of proteins cross-linked in MDA-MB-231 cells
Type: cell-based
Conditions: of the 3,158 proteins detectable before pull-down
Procedure: Proteomic Sample Preparation and Analysis. MDA-MB-231 cells were seeded in 60 mm dishes and allowed to reach ˜80% confluency. The cells were then treated with […] of compound in growth medium and incubated for 16 h. Cells were washed with 1×DPBS and irradiated with UV light for 10 min. For each condition, two biological replicates were prepared, and each biological replicate was split into three technical replicates. […]
Pulled-down proteins were released from beads by resuspending in 6 M urea/1×PBS (0.5 mL) supplemented with 10 mM of TCEP at room temperature for 30 min. […] To the samples was added 1 volume of isopropanol containing 1% (v/v) trifluoroacetic acid, followed by a styrenedivinylbenzene reverse-phase sulfonate (SDB-RPS) StageTip 12 Peptides were resuspended in 0.1% (v/v) formic acid (FA) in water and analyzed using Proxeon EASY-nLC 1200 nano-UHPLC coupled to QExactive HF-X Quadrupole-Orbitrap mass spectrometer (Thermo Scientific). […]
The MS data were analyzed with MaxQuant13 (V1.6.1.0) and searched against the human proteome (Uniprot) and a common list of contaminants included in MaxQuant. […] The minimum peptide length was set to six amino acids and peptide re-quantification was enabled with the minimal number of peptides per protein set to 2. […]

Q: For `C#CCCC1(CCC(=O)N(C)[C@H]2CC[C@@H](c3ccc(Cl)c(Cl)c3)c3ccccc32)N=N1` [Compound F1], which “proteins selectively pulled-down (not pulled-down by the control probe)” value is on record?
A: 79 proteins
